# Laboratory results published in patent US20110263454A1, “Methods of Identifying Functional Characteristics of Promoters, Transcription Modifying Proteins and Transcription Modulating Agents” (Salk Institute for Biological Studies, priority 2008, published 2011).
# Experiments:
# hIRF7 promoter = experiment: NHR-promoter luciferase screen, hIRF7 promoter; type: cell-based, human; settings: for Normalized Luc. act., normalized to control / Luc. act., normalized to lacZ: IRF7 promoter reporter; for Normalized Luc. act., normalized to control: HR without or with its ligand, relative to control; for Luc. act., normalized to lacZ: hormone receptor (HR) without or with its ligand; for hIRF7 promoter reporter activity: transcription factor +/- ligand, control = 1.00
# Protocol: (§1) The use, feasibility, and reproducibility of the functional NHR-promoter screen in a 48-well format have been tested validated. Briefly, there were co-expressed 50 ng of each NHR/NHR homodimer or NHR/RXR heterodimer with 100 ng promoter/luciferase construct and 50 ng of LacZ (as a control for transfection efficiency) in CV-1 cells using Fugene HD (Roche) as a transfection reagent (alternatively or additionally, a CMV-YFP construct can be used as a transfection control). Each of the nuclear hormone receptors that were used in these experiments was cloned into a pcDNA3.1 vector and comprised a C-terminally linked V5H6 tag. Twenty-four hours after transfection, appropriate ligands were added, where applicable, (see Table 5 for various ligands and concentrations and after 48 hrs, samples were assayed for luciferase and LacZ activity. To measure for luciferase activity 15 ul of sample was added to 30 ul of luciferase buffer (20 mM tricine, 1.07 mM MgCarbonate, 2.67 mM MgSulfate, 0.1 mM Naz-EDTA, 5 mM DTT, 5 mM ATP, 0.15 mg/ml CoA, 0.5 mM Luciferin), mixed briefly, and run in a Perkin Elmer Victor 5 luminometer. Thus, the functional NHR-promoter screen was used to observe the transcriptional activity of 29 promoters from various physiological pathways including inflammation, lipid and sugar metabolism, cholesterol transport, xenobiotic metabolism, and circadian rhythm.
# (§2) The promoters that facilitate transcription of the indicated gene products that were tested using the protocols described herein are listed in the first row of the table. The nuclear hormone receptors and, where applicable, ligands that were assayed for their transcriptional effects on the promoters are listed in the first column of the table. The data represent the luciferase activity of each sample normalized to both the lacZ activity of that sample and to a control, e.g., no NHR or ligand, as customary in the art. As described previously, these normalizations allow the transcriptional activity of each reporter cell to be compared to other samples.
# (§3) Tables 7-40 show the transcriptional effects of the hormone receptors, and, where applicable, ligands (orphan receptors are screened without ligand), on each individual promoter. […] The control data of each table are shown in their last rows.
# hPPARg2 promoter = experiment: NHR-promoter luciferase screen, hPPARg2 promoter; type: cell-based, human; settings: for Luc. act., normalized to lacZ / Normalized Luc. act., normalized to control: PPARG2 promoter, hormone receptor with or without its ligand; for Normalized Luc. act., normalized to control: relative to control; for Results of assays of transcription factor (+/- ligand) with hPPARg2: Table 6d, luciferase activity relative to control (control = 1.00)
# Protocol: as §1, §2, §3
# hPPARg1 promoter = experiment: NHR-promoter luciferase screen, hPPARg1 promoter; type: cell-based, human; settings: for Luc. act., normalized to lacZ / Normalized Luc. act., normalized to control: PPARG1 promoter, hormone receptor with or without its ligand; for Normalized Luc. act., normalized to control: relative to control; for Results of assays of transcription factor (+/- ligand) with hPPARg1: Table 6d, luciferase activity relative to control (control = 1.00)
# Protocol: as §1, §2, §3
# mAdiponectin promoter = experiment: NHR-promoter luciferase screen, mAdiponectin promoter; type: cell-based, mouse; settings: for Luc. act., normalized to lacZ / Normalized Luc. act., normalized to control: Adiponectin, HR component without or with its ligand; for mAdiponectin promoter reporter activity: transcription factor +/- ligand, control = 1.00
# Protocol: as §1, §2, §3
# hG6PD promoter = experiment: NHR-promoter luciferase screen, hG6PD promoter; type: cell-based, human; settings: for Luc. act., normalized to lacZ / Normalized Luc. act., normalized to control: G6PD promoter reporter, co-transfected HR, without or with its ligand; for Normalized Luc. act., normalized to control: relative to control; for luciferase activity normalized to lacZ activity and to a control, hG6PD: hG6PD promoter-luciferase, CV-1 cells, NHR +/- ligand, control = 1.00
# Protocol: as §1, §2, §3
# mPgc1b promoter = experiment: NHR-promoter luciferase screen, mPgc1b promoter; type: cell-based, mouse; settings: for Luc. act., normalized to lacZ / Normalized Luc. act., normalized to control: PGC1b promoter reporter, co-transfected HR, without or with its ligand; for Normalized Luc. act., normalized to control: relative to control; for luciferase activity normalized to lacZ activity and to a control, mPgc1b: mPgc1b promoter-luciferase, CV-1 cells, NHR +/- ligand, control = 1.00
# Protocol: Briefly, there were co-expressed 50 ng of each NHR/NHR homodimer or NHR/RXR heterodimer with 100 ng promoter/luciferase construct and 50 ng of LacZ (as a control for transfection efficiency) in CV-1 cells using Fugene HD (Roche) as a transfection reagent (alternatively or additionally, a CMV-YFP construct can be used as a transfection control). Each of the nuclear hormone receptors that were used in these experiments was cloned into a pcDNA3.1 vector and comprised a C-terminally linked V5H6 tag.
# as §2, §3
Substance,"Normalized Luc. act., normalized to control (hIRF7 promoter)","Luc. act., normalized to lacZ (hIRF7 promoter)",hIRF7 promoter reporter activity (hIRF7 promoter),"Luc. act., normalized to lacZ (hPPARg2 promoter)","Normalized Luc. act., normalized to control (hPPARg2 promoter)",Results of assays of transcription factor (+/- ligand) with hPPARg2 (hPPARg2 promoter),"Luc. act., normalized to lacZ (hPPARg1 promoter)","Normalized Luc. act., normalized to control (hPPARg1 promoter)",Results of assays of transcription factor (+/- ligand) with hPPARg1 (hPPARg1 promoter),"Luc. act., normalized to lacZ (mAdiponectin promoter)","Normalized Luc. act., normalized to control (mAdiponectin promoter)",mAdiponectin promoter reporter activity (mAdiponectin promoter),"Luc. act., normalized to lacZ (hG6PD promoter)","Normalized Luc. act., normalized to control (hG6PD promoter)","luciferase activity normalized to lacZ activity and to a control, hG6PD (hG6PD promoter)","Luc. act., normalized to lacZ (mPgc1b promoter)","Normalized Luc. act., normalized to control (mPgc1b promoter)","luciferase activity normalized to lacZ activity and to a control, mPgc1b (mPgc1b promoter)"
"PNR: Photoreceptor-specific Nuclear Receptor (NR2E3), cDNA driver",1.0,27.5,1.04,1.0,0.5,0.51,45.9,0.7,0.67,70.7,1.1,1.13,45.9,1.2,1.23,4.9,0.4,0.42
"NR4a1: NR4a1 (NR4A1; NUR77), nuclear hormone receptor cDNA driver",2.3,61.0,2.31,1.6,0.8,0.81,129.6,1.9,1.88,85.6,1.4,1.36,77.6,2.1,2.07,17.1,1.4,1.45
"TLX: Tailless (homolog of drosophila) (NR2E1), cDNA driver",2.1,55.0,2.09,0.9,0.4,0.43,107.9,1.6,1.57,78.4,1.2,1.25,107.9,2.9,2.89,4.5,0.4,0.38
"PPARg: Peroxisome proliferator activated receptor γ (NR1C3), cDNA driver",1.7,44.8,1.70,2.2,1.1,1.08,75.7,1.1,1.10,80.6,1.3,1.28,66.0,1.8,1.77,11.35,1.0,0.96
"GR: Glucocorticoid Receptor (NR3C1), cDNA driver",0.7,18.9,0.72,2.3,1.1,1.15,37.2,0.5,0.54,33.2,0.5,0.53,22.3,0.6,0.60,3.2,0.3,0.27
"AR: Androsterone Receptor (NR3C4), cDNA driver",1.1,29.9,1.14,2.7,1.3,1.34,90.6,1.3,1.31,82.7,1.3,1.32,41.5,1.1,1.11,9.0,0.8,0.76
"SF-1: Steroidogenic Factor 1 (NR5A1, SF1), cDNA driver",2.5,65.5,2.49,2.2,1.1,1.09,124.1,1.8,1.80,35.0,0.6,0.56,124.1,3.3,3.32,33.2,2.8,2.80
"VDR: Vitamin D Receptor (NR1I1), cDNA driver",1.1,30.2,1.15,2.1,1.0,1.03,38.1,0.6,0.55,57.4,0.9,0.91,43.1,1.2,1.15,6.85,0.6,0.58
"RXRa: Retinoic X Receptor α (NR2B1), cDNA driver",1.0,27.5,1.04,1.3,0.7,0.67,45.6,0.7,0.66,57.3,0.9,0.91,45.6,1.2,1.22,8.6,0.7,0.72
"LXRa: Liver X Receptor α (NR1H3), cDNA driver",1.3,33.2,1.26,1.3,0.6,0.64,80.8,1.2,1.17,60.7,1.0,0.97,60.5,1.6,1.62,8.40,0.7,0.71
